pIC50: −log10 of the molar value. Like-named read-outs stand apart in the source and are kept apart here.
Legend:
human HDAC2 = human HDAC2 (Homo sapiens (Human), UniProt Q92769); assay: HDAC2 inhibition assay (modified FLUOR DE LYS, 384-well); format: biochemical; settings: […] enzyme, 40 μM substrate BML-KI104, 3 h pre-incubation; read-out: HDAC2 IC50
KARN cells (Jurkat 2C4) = assay: cells; settings: Homo sapiens
human HDAC1 = human HDAC1 (Homo sapiens (Human), UniProt Q13547)
HDAC6 = HDAC6 (Homo sapiens (Human), UniProt Q9UBN7)
Procedure: The histone deacetylase activities of HDAC1, HDAC2, HDAC3, HDAC6, and HDAC8 were measured in modified FLUOR DE LYS assays in 384-well format. In this assay, HDAC enzymes are initially incubated with an F-acetyl (or -trifluoroacetyl)-L-lysine-containing substrate with a C-terminal amide having aminomethylcoumarin as the amine component. HDACs cleave the F-acetyl group, rendering the resulting product susceptible to AMC cleavage by trypsin. The released AMC is then detected by its fluorescence. […] All steps were performed at room temperature (23° C.). The assay was performed by pre-incubating serial dilutions of test compounds with the target HDAC prior to initiation with substrate. […] Final conditions used for each assay were: 1. […] The reactions were stopped and developed by addition of 30 ul of HDAC developer solution containing a saturating level of HDAC inhibitor as follows: 1. […] For data analysis, background subtracted product (fluorescence) vs. time data for each inhibitor concentration was fitted using a 4-parameter fit.

[1] = biological target: human HDAC3/SMRT heterodimer (Homo sapiens (Human), UniProt O15379)
human HDAC8 = human HDAC8 (Homo sapiens (Human), UniProt Q9BY41); assay: HDAC8 inhibition assay (modified FLUOR DE LYS, 384-well); format: biochemical; settings: […] enzyme, 200 μM substrate BML-KI178, 3 h pre-incubation; read-out: HDAC8 IC50
[2] = read-out: Karn EC50 nM 0.1% NHS, 0.1% normal human serum, luciferase induction, 2 μM SAHA = 100%
[3] = read-out: Karn EC50 nM 5% NHS, 5% normal human serum, luciferase induction, 2 μM SAHA = 100%

Sequence of human HDAC2 (Q92769 whole entry): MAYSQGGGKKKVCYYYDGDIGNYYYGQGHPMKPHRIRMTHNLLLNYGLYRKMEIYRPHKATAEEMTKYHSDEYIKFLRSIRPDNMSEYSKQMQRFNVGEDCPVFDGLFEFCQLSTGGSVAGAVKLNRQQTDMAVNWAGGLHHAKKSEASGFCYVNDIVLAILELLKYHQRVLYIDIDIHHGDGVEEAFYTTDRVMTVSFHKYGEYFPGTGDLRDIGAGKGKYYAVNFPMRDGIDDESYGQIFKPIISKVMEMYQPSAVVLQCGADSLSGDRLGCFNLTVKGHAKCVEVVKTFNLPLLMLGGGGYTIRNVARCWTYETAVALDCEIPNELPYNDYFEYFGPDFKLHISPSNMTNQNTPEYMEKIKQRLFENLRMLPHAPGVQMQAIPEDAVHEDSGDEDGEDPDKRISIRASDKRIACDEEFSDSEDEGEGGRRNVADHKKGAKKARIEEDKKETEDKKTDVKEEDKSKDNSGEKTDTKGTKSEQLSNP
Sequence of human HDAC8 (Q9BY41 whole entry): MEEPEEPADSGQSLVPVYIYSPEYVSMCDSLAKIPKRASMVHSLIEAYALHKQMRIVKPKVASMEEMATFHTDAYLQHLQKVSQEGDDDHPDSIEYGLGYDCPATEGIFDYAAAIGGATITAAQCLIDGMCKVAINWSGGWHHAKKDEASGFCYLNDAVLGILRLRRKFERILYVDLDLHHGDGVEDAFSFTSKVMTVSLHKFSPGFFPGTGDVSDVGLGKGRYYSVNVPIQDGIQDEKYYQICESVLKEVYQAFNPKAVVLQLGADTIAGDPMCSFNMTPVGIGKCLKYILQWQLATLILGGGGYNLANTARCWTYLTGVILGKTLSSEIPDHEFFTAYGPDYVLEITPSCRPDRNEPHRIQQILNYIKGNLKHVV
Sequence of HDAC6 (Q9UBN7 whole entry): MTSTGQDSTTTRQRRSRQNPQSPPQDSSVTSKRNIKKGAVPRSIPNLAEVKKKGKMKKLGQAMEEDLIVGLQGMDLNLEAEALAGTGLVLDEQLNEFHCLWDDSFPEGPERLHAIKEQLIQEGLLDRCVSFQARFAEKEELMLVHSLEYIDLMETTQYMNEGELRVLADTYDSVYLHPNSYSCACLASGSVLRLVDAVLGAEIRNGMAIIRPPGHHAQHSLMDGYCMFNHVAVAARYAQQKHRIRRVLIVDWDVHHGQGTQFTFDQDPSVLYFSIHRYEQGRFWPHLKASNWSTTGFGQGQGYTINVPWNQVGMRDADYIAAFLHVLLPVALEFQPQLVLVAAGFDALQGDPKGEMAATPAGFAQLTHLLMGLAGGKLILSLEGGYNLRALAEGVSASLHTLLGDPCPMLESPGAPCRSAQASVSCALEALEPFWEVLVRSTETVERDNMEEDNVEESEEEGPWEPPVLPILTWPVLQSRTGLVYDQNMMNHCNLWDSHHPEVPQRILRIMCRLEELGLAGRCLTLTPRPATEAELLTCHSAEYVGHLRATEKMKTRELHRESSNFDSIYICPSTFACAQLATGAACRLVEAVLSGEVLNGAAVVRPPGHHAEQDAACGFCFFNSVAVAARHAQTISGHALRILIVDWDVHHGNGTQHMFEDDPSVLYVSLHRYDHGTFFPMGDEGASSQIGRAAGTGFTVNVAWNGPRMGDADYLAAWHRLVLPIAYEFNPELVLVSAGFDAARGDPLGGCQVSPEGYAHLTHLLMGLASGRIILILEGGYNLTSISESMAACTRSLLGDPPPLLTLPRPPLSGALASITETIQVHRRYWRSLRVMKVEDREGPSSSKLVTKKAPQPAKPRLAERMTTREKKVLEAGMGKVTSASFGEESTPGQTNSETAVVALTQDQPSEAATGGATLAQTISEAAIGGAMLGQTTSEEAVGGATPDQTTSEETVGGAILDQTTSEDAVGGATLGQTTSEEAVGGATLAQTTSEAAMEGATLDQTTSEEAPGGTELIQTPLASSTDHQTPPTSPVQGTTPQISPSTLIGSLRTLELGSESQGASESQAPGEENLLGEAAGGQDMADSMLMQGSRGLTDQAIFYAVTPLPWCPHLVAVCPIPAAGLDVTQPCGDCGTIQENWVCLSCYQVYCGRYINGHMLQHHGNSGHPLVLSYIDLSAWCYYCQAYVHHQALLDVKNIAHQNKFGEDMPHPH
Sequence of human HDAC3/SMRT heterodimer (O15379 whole entry): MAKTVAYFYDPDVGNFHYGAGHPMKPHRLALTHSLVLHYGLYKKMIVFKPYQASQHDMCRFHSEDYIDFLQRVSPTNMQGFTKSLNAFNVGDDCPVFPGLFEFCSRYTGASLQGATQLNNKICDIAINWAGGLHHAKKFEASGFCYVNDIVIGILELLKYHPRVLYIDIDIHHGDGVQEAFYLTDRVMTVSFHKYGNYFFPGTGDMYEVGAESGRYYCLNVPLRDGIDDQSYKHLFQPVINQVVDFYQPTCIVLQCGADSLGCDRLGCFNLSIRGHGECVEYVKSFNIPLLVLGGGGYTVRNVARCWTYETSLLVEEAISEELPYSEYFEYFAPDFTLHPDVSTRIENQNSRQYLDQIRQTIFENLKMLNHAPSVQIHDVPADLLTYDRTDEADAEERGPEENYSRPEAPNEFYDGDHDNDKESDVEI
Sequence of human HDAC3/SMRT heterodimer (Q9Y618 1-899 partner): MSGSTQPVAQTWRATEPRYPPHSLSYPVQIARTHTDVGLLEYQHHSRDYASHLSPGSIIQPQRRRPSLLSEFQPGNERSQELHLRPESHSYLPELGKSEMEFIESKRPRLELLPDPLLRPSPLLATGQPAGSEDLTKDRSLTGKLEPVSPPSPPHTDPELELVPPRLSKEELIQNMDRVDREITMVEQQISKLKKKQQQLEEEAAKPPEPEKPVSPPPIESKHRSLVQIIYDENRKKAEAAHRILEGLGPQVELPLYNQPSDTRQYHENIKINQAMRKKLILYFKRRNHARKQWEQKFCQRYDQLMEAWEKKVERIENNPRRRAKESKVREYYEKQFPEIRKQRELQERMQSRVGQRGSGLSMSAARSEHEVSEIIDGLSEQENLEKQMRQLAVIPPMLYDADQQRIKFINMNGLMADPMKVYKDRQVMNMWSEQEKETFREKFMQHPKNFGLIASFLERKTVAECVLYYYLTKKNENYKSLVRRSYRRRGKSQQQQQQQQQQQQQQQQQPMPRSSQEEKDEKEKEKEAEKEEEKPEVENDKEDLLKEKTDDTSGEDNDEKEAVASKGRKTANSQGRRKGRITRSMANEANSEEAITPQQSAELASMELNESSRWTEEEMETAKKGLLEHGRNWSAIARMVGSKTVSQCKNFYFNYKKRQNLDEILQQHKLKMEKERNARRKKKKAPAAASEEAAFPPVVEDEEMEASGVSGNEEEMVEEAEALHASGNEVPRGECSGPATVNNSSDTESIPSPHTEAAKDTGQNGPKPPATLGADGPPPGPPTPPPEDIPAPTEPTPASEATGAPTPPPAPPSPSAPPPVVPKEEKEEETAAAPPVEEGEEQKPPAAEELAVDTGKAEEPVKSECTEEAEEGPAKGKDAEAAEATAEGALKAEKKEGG
Sequence of human HDAC1 (Q13547 whole entry): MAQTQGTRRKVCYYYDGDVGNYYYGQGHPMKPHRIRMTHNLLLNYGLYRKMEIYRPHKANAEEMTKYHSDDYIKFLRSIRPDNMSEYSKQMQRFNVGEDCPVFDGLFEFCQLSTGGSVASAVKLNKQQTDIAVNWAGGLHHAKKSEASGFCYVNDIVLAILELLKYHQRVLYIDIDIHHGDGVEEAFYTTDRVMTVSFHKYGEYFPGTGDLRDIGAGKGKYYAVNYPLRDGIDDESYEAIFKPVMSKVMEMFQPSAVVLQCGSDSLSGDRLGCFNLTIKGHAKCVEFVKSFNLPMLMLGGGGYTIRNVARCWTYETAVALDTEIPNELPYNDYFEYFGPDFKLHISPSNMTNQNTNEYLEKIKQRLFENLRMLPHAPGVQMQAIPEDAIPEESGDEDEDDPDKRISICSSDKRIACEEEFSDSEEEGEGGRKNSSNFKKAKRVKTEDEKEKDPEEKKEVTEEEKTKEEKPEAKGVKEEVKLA

Structure (SMILES) | pIC50 (human HDAC2) | EC50 (KARN cells (Jurkat 2C4); [2]) | EC50 (KARN cells (Jurkat 2C4); [3]) | pIC50 (human HDAC1) | pIC50 (HDAC6) | pIC50 [1] | pIC50 (human HDAC8)
CN1CCC(C(=O)N[C@@H](CCCCCC(=O)c2nccs2)c2nc(-c3ccc(F)cc3)c[nH]2)CC1 [Example 6, (S)-N-(1-(4-(4-fluorophenyl)-1H-imidazol-2-yl)-7-oxo-7-(thiazol-2-yl)heptyl)-1-methylpiperidine-4-carboxamide] | 7.85 | 87 nM | 160 nM | 8.54 | 4.35 | 8.82 | 7.26
N[C@@H](CCCCCC(=O)c1ncco1)c1nc(-c2ccc3nn(C4CC4)cc3c2)c[nH]1 [Example 14] | 8.35 | 390 nM | 270 nM | 9.05 | 4.35 | 8.96 | 5.51
COc1nc2ccccc2cc1-c1c[nH]c([C@@H](N)CCCCCC(=O)c2ncco2)n1 [Example 15] | 7.74 | 180 nM | 670 nM | 8.28 | 4.40 | 8.14 | 6.14
CC(C)n1ccc2cc(-c3cnc([C@@H](N)CCCCCC(=O)c4ncco4)[nH]3)ccc2c1=O [Example 17] | 7.77 | 650 nM | 590 nM | 8.68 | 4.35 | 8.39 | 5.54
N[C@@H](CCCCCC(=O)c1ncco1)c1ncc(-c2ccc3nc(N4CCCC4)ccc3c2)[nH]1 [Example 19] | 8.03 | 210 nM | 420 nM | 8.70 | < 5.82 | 8.82 | 5.44
COc1cc2c(ccc(=O)n2C)cc1-c1cnc([C@@H](N)CCCCCC(=O)c2ncco2)[nH]1 [Example 21] | 8.08 | 110 nM | 110 nM | 8.72 | < 5.35 | 8.82 | 6.31
Cc1ccc2cc(-c3cnc([C@@H](N)CCCCCC(=O)c4ncco4)[nH]3)c(Cl)cc2n1 [Example 22] | 7.42 | 130 nM | 290 nM | 8.00 | 4.35 | 8.17 | 5.82
CCn1cc(-c2ccc3nc(C)ccc3c2)nc1[C@@H](N)CCCCCC(=O)c1ncco1 [Example 30, (S)-7-amino-7-(1-ethyl-4-(2-methylquinolin-6-yl)-1H-imidazol-2-yl)-1-(oxazol-2-yl)heptan-1-one] | 6.64 | 2500 nM | 4000 nM | 7.31 | 4.41 | 7.32 | 4.68
CN1CCC2(CC1)C[C@@H]2C(=O)N[C@@H](CCCCCC(=O)c1ccon1)c1nc(-c2ccccc2F)c[nH]1 [Example 39] | 9.24 | 3 nM | 4 nM | 10.00 | 4.35 | 9.89 | 8.70
COc1nc2ccccc2cc1-c1c[nH]c([C@H](CCCCCC(=O)c2ccon2)NC(=O)C2CCN(C)CC2)n1 [Example 40] | 8.74 | 15 nM | 58 nM | 8.82 | 5.70 | 8.82 | 8.48
COc1nc2ccccc2cc1-c1cnc([C@H](CCCCCC(=O)c2ncco2)NC(=O)CN(C)C)[nH]1 [Example 41] | 8.59 | 16 nM | 140 nM | 9.41 | 5.48 | 9.15 | 7.19
COc1nc2ccccc2cc1-c1cnc([C@H](CCCCCC(=O)c2ncco2)NC(=O)c2cncs2)[nH]1 [Example 42] | 8.27 | 52 nM | 340 nM | 8.77 | 4.89 | 8.82 | 7.57
Cc1ccc2cc(-c3c[nH]c([C@H](CCCCCC(=O)c4ccon4)NC(=O)[C@H]4CC45CCN(C)CC5)n3)ccc2n1 [Example 44] | 9.01 | 9.5 nM | 9.1 nM | 9.62 | 4.35 | 9.59 | 8.24
Cc1cc(C(=O)CCCCC[C@H](N)c2nc(-c3ccccc3F)c[nH]2)no1 [Example 45] | 7.12 | 460 nM | 1900 nM | 8.05 | 4.35 | 7.72 | 5.92
CN(C)CC(=O)N[C@@H](CCCCCC(=O)c1ncco1)c1ncc(-c2ccc3c(ccc(=O)n3C)c2)[nH]1 [Example 46] | 8.02 | 31 nM | 44 nM | 8.77 | 4.35 | 8.82 | 7.04
Cc1cc(C(=O)CCCCC[C@H](NC(=O)CN(C)C)c2nc(-c3ccccc3F)c[nH]2)no1 [Example 48] | 9.00 | 28 nM | 69 nM | 9.74 | 4.35 | 9.82 | –
CCN(CC)CC(=O)N[C@@H](CCCCCC(=O)c1ncco1)c1ncc(-c2cc3ccccc3nc2OC)[nH]1 [Example 50] | 8.49 | 21 nM | 140 nM | 9.00 | 5.77 | 8.89 | 7.33
COc1nc2ccccc2cc1-c1cnc([C@H](CCCCCC(=O)c2ncco2)NC(=O)CN2CCC2)[nH]1 [Example 51] | 8.64 | 11 nM | 56 nM | 9.42 | 6.16 | 9.18 | 7.51
COc1nc2ccccc2cc1-c1cnc([C@H](CCCCCC(=O)c2ncco2)NC(=O)CN2CCCCC2)[nH]1 [Example 53] | 8.31 | 26 nM | 220 nM | 8.62 | 5.96 | 8.80 | 7.04
COc1nc2ccccc2cc1-c1cnc([C@H](CCCCCC(=O)c2ncco2)NC(=O)CCCN(C)C)[nH]1 [Example 55] | 8.68 | 12 nM | 32 nM | 9.52 | 6.85 | 9.32 | –
COc1cc2nc(C)ccc2cc1-c1cnc([C@H](CCCCCC(=O)c2cc(C)on2)NC(=O)CN(C)C)[nH]1 [Example 56] | 8.74 | 6.4 nM | 11 nM | 9.40 | 4.35 | 9.43 | 6.51
COc1cc2nc(C)ccc2cc1-c1cnc([C@H](CCCCCC(=O)c2cc(C)on2)NC(=O)C2CN(C)C2)[nH]1 [Example 57] | 9.00 | 5.5 nM | 13 nM | 9.64 | 4.35 | 9.62 | 6.82
COc1cc2nc(C)ccc2cc1-c1cnc([C@H](CCCCCC(=O)c2cc(C)on2)NC(=O)C2CC23CCN(C)CC3)[nH]1 (stereo partly shown) [Example 58] | 9.05 | 6.8 nM | 11 nM | 9.74 | 4.35 | 9.74 | 6.92
NC(CCCCCC(=O)c1ccon1)c1cnn(-c2ccc(F)cc2)c1 (stereo not shown) [Example 121, 7-amino-7-[1-(4-fluorophenyl)-1H-pyrazol-4-yl]-1-isoxazol-3-ylheptan-1-one] | – | – | – | 7.82 | 4.35 | 7.85 | –
N[C@@H](CCCCCC(=O)c1ncco1)c1ncc(-c2cccc(F)c2F)[nH]1 [Example 136, (7S)-7-amino-7-[5-(2,3-difluorophenyl)-1H-imidazol-2-yl]-1-(1,3-oxazol-2-yl)heptan-1-one] | 6.42 | – | – | 6.96 | < 6.05 | 7.00 | < 6.05
N[C@@H](CCCCCC(=O)c1ncco1)c1ncc(-c2cc(C(F)(F)F)ccc2F)[nH]1 [Example 137, (7S)-7-amino-7-{5-[2-fluoro-5-(trifluoromethyl)phenyl]-1H-imidazol-2-yl}-1-(1,3-oxazol-2-yl)heptan-1-one] | 6.62 | – | – | 7.21 | < 6.05 | 7.35 | < 6.05
COc1nc2ccccc2cc1-c1cnc([C@H](CCCCCC(=O)c2ncco2)NC(=O)C2(c3cnccn3)CC2)[nH]1 [Example 155, N-[(1S)-1-[5-(2-methoxyquinolin-3-yl)-1H-imidazol-2-yl]-7-(1,3-oxazol-2-yl)-7-oxoheptyl]-1-pyrazin-2-ylcyclopropanecarboxamide] | 8.28 | 50 nM | 600 nM | 9.09 | – | 8.89 | 7.28
COc1cc2nc(C)ccc2cc1-c1cnc([C@H](CCCCCC(=O)c2ncco2)NC(=O)CN2CCNCC2=O)[nH]1 [Example 159, N-[(1S)-1-[5-(7-methoxy-2-methylquinolin-6-yl)-1H-imidazol-2-yl]-7-(1,3-oxazol-2-yl)-7-oxoheptyl]-2-(2-oxopiperazin-1-yl)acetamide] | 8.24 | 1500 nM | 2900 nM | 9.09 | 5.54 | 8.77 | –
COc1cc2nc(C)ccc2cc1-c1cnc([C@H](CCCCCC(=O)c2ncco2)NC(=O)c2cc3n(n2)CCCC3)[nH]1 [Example 164] | 7.74 | 85 nM | 290 nM | 8.48 | < 6.05 | 9.06 | –

Reference: US12331044B2, “Inhibitors of histone deacetylase useful for the treatment or prevention of HIV infection” (Merck Sharp & Dohme LLC, priority 2018, dated 2025)
